Source: patent US20060194814A1, “Benzamide compounds” (priority 2003, published 2006)
“Also recorded” adds a separate entry of the source. Read-outs that look alike come from different tables or passages of the source.

Legend:
[1] = test system: HIV-1 IIIB strain; assay: HIV-1 IIIB replication in HeLa indicator cells (AV-Finder-HIV assay), no pre-medication; format: cell-based; details: for efficacy in reducing HIV-1 IIIB replication compared to AZT, ddI or 3TC: human cells
[2] = test system: HIV-1 IIIB strain; assay: HIV-1 IIIB replication in HeLa cells, 24 hours pre-medication; format: cell-based
[3] = test system: multi-drug resistant HIV MDR-769 strain; assay: HIV MDR 769 strain replication in HeLa cells, without pre-medication; format: cell-based
[4] = test system: HeLa cells; assay: MTT cytotoxicity assay after the HIV replication protocol; format: cell-based, human; details: MTT cytotoxicity assay
[5] = test system: HIV-1 IIIB strain; assay: HIV-1 IIIB replication in HeLa cells, 48 hours pre-medication; format: cell-based; details: 48 hours pretreatment, read-out: IC50 of inhibition of HIV replication
[6] = test system: Y1 mouse adrenal tumor cells; assay: dbcAMP-induced 20á-hydroxyprogesterone synthesis in Y1 cells; format: cell-based
Protocol: Culture media were then changed and cells were stimulated with 1 mM dbcAMP and the treatment for 24 to 48 hours. […] The synthesis of 20 —OH progesterone and progesterone in Y1 and MA-10 cell media respectively were measured by RIA (Brown et al., 1992). H295R human adrenal tumor cells were seeded in 48-well plates at 10^5 cells/well and incubated for 24 hours. […] At the end of the incubation time period, cells were treated with 1 mM dbcAMP for 48 hours. Cortisol levels in the media were determined by radioimmunoassay as previously described (Amri et al., 1996).

[7] = no pre-medication, concentrations up to 1 μM

Question: Nc1ccn([C@@H]2CS[C@H](CO)O2)c(=O)n1 [3TC] was tested. Which “inhibition of HIV-1 IIIB viral replication reached” value ([1]; no pre-medication, maximal inhibition reached (maximal concentrations)) did it give?
Answer: 90%

Question: Which “efficacy in reducing HIV-1 IIIB replication compared to AZT, ddI or 3TC” value [1] does the source give for CCN(CC)CCNC(=O)c1ccc(N)cc1 [SP100, procainamide] here?
Answer: efficacy higher than AZT, ddI or 3TC

Question: And the “efficacy on viral replication compared to AZT” value [2]?
Answer: effective but at the same extent as AZT

Question: And the “effect on HIV MDR 769 strain replication” value [3]?
Answer: effectively blocked

Question: How did the “strongest inhibition of viral replication” value ([1]; no pre-medication, at 0.01 μM) turn out when O=c1[nH]cnc2c1ncn2[C@H]1CC[C@@H](CO)O1 [ddI] was run?
Answer: 26.37±26.11%

Question: What about the IC50 [4] of the same molecule?
Answer: 89 µM

Question: What does the source list for Cc1cn([C@H]2C[C@H](N=[N+]=[N-])[C@@H](CO)O2)c(=O)[nH]c1=O [AZT]?
Answer: inhibition of the replication ([2]; at 30 pM): < 30%; IC50 [5]: 30 nM; effect on HIV MDR 769 strain replication [3]: not effective; also recorded: ineffective; IC50 [4]: 161 µM

Question: Which results are given for CC1CN(C(=O)C(Cc2c[nH]c3ccccc23)NC(=O)c2ccc([N+](=O)[O-])cc2)CCN1C(=O)C1CC1 (stereo not drawn) [SP010, N-[2-(4-cyclopropanecarbonyl-3-methyl-piperazin-1-yl)-1-(1H-indol-3-yl-methyl)-2-oxo-ethyl]-4-nitro-benzamide]?
Answer: inhibition at 0.01 µM ([1]; Human immunodeficiency virus 1, IIIB, HeLa, no pre-medication, at 0.01 μM, read-out: strongest inhibition of viral replication): 55.6 ± 2.12%; efficacy in reducing HIV-1 IIIB replication compared to AZT, ddI or 3TC [1]: efficacy higher than AZT, ddI or 3TC; inhibition of viral replication [1, 7]: 40%; potency compared to ddI [1, 7]: more potent that ddI; efficacy in inhibiting viral replication compared to ddI ([1]; within the range of 1 nM to 1 μM): higher efficacy than ddI; concentration at the peak of the inhibitory activity [2]: 0.03 nM; IC50 ([5]; Human immunodeficiency virus 1, IIIB, HeLa): 0.01 nM; effect on HIV MDR 769 strain replication [3]: effectively blocked; maximal inhibition of MDR HIV strain replication [3]: 50%; effect on dbcAMP-induced 20á-hydroxyprogesterone production ([6]; Y1 cells): decreased in a dose-dependent manner; potency on cAMP-corticosteroid formation compared to procaine ([6]; even at a concentration as low as 1 μM): as potent as procaine
